{"source": "patent US20220023291A1", "about": "“COMPOSITIONS AND METHODS FOR REGULATING INFLAMMATION” (University of Virginia Patent Foundation, priority 2018, published 2022)", "key": {"BMDM [1]": {"system": "BMDM", "assay": "IL-6 ELISA on supernatant of LPS-stimulated BMDM", "assay_type": "cell-based, mouse", "conditions": "1 μg/mL LPS, 6 hours; 20 μM JSH-23, 20 μM PD98059, 1 μM SP600125, 5 μM 4μ8C", "procedure": "(§1) Tissue culture conditions and Reagents. HEK293 cells, primary lung fibroblasts and BMDM were isolated and maintained as described (41-43). Cells were treated with LPS (Sigma, L4391), 4μ8C (Tocris, 4479), tunicamycin (Tocris, 3516), PD98059 (Medchem Express HY-12028), JSH-23 (Medchem Express, Hy-13982), SP600125 (Medchem Express, HY-12041), cycloheximide (Tocris, 0970), lactacystin (Cayman Chemical, 70980), chloroquine (Fisher, ICN19391925), and STF 083010 (Medchem Express, HY-15845) as described in the text.\n(§2) ELISA. ELISA for IL-6 and TNFα were performed as previously described (Remick et al., 2002). Antibodies used were: anti-mouse IL-6 MP5-20F3 (Biolegend, 504501) 0.5 μg/mL; biotin anti-mouse IL-6 MP5-32C11 (Biolegend, 504601) 1 μg/mL; anti-mouse TNFα (R&D systems, AF-410-NA) 0.5 μg/mL; biotin anti-mouse TNFα (R&D systems, BAF410) 0.25 μg/mL.\nTissue culture conditions and Reagents. HEK293 mTLR4/MD2/CD14 (Invivogen, 293-mtlr4md2cd14), primary lung fibroblasts, and BMDM were isolated and maintained as described (Zhang et al., 2008; Seluanov et al., 2010). Cells and animals were treated with LPS (Sigma, L4391), 4μ8C (Tocris, 4479), APY-29 (Medchem Express HY-17537), PD98059 (Medchem Express HY-12028), JSH-23 (Medchem Express, HY-13982), SP600125 (Medchem Express, HY-12041), STF 083010 (Medchem Express, HY-15845), Fluvoxamine (Medchem Express, HY-B0103A), and Ceftriaxone (Hospira, NDC: 0409-7337-01), as described in the text.\nELISA. ELISA for IL-6 and TNF-α were performed as previously described (Remick et al., 2002). Antibodies used were: anti-mouse IL-6 MP5-20F3 (Biolegend, 504501) 0.5 μg/mL; biotin anti-mouse IL-6 MP5-32C11 (Biolegend, 504601) 1 μg/mL; anti-mouse TNF-α (R&D systems, AF-410-NA) 0.5 μg/mL; biotin anti-mouse TNF-α (R&D systems, BAF410) 0.25 μg/mL."}, "[2]": {"target": "T1, IRE1 endonuclease activity (Mus musculus, UniProt Q9EQY0)", "T1 construct": "We prepared bone marrow derived macrophages (BMDM) from WT and S1R KO mice; endogenous in cells; host or cells: primary mouse bone marrow derived macrophages (WT and S1R KO, C57BL/6J background)", "T1 sequence (Q9EQY0 21-977)": "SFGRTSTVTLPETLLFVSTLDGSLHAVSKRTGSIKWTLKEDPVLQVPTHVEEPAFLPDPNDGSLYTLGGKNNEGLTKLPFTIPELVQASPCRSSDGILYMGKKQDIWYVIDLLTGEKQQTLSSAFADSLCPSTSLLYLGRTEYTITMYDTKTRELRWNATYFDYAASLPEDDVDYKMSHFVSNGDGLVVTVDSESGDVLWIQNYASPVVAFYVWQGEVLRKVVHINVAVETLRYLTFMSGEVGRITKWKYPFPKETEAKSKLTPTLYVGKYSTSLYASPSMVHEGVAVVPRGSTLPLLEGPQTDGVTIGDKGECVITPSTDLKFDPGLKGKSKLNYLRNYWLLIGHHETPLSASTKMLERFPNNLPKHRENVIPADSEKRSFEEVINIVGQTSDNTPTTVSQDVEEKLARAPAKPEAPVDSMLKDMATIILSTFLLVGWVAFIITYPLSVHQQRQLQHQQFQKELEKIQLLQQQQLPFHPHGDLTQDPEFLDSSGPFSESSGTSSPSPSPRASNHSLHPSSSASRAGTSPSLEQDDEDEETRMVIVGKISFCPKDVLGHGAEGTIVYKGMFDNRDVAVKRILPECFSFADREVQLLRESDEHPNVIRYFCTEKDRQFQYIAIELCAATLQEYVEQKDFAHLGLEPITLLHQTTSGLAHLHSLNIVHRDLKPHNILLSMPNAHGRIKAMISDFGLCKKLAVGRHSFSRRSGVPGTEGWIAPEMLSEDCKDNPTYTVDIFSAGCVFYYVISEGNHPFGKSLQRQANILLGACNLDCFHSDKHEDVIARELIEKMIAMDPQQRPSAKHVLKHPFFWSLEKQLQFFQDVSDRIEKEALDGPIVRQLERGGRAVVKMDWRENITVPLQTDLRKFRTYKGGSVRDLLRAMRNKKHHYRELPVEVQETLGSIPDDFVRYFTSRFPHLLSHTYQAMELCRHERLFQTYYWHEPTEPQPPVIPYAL", "assay": "XBP1 splicing ratio by qPCR in BMDM", "assay_type": "cell-based", "conditions": "WT and S1R KO BMDM, 100 ng/mL LPS + 5 μM 4μ8C, 6 hours", "procedure": "as §1\n(§3) cDNA synthesis and quantitative RT-PCR. Total RNA was extracted using an ISOLATE II RNA (Bioline, 52073) and cDNA synthesis was performed with the ISCRIPT™ kit (Bio-Rad, 170-8891). TaqMan Probes were obtained from Life Technologies (GAPDH: Mm99999915_g1; IL-6: Mm00446190_m1; pro-IL-1β: Mm00434228_m1; TNFα: Mm00443258_m1). Primers for IRE1 detection were GCACGUGAAUUGAUAGAGA (SEQ ID NO: 10) and UCUCUAUCAAUUCACGUGC (SEQ ID NO: 11). Primers for the detection of XBP1 were previously published (Lipson et al., 2008). RT-PCR was performed as described previously (Gaultier et al., 2009).\n(§4) cDNA synthesis and quantitative PCR. Total RNA was extracted using an ISOLATE II RNA kit (Bioline, 52073) and cDNA synthesis was performed with the SENSIFAST™ cDNA synthesis kit (Bioline, BIO-65054). TaqMan Probes were obtained from Thermo Fisher (GAPDH: Mm99999915_g1; IL-6: Mm00446190_m1; pro-IL-1β: Mm00434228_m1; IL10: Mm004396). Primers for the detection of XBP1, IL-8, and actin were previously published (Vandesompele et al., 2002; Kumar & Valdivia, 2008; Girard et al., 2009). qPCR was performed as described previously (Gaultier et al., 2008)."}, "IRE1 transcript": {"system": "IRE1 transcript", "assay": "qPCR for IRE1 expression in BMDM", "assay_type": "cell-based, mouse", "conditions": "S1R KO BMDM, 5 μM 4μ8C", "procedure": "as §3"}, "BMDM [3]": {"system": "BMDM", "assay": "qPCR for pro-inflammatory cytokine expression in LPS-treated BMDM", "assay_type": "cell-based, mouse", "conditions": "100 ng/mL LPS + 5 μM 4μ8C, 6 hours", "procedure": "as §3, §4"}, "primary lung fibroblasts": {"system": "primary lung fibroblasts", "assay": "IL-6 ELISA on supernatant of LPS-stimulated primary lung fibroblasts", "assay_type": "cell-based, mouse", "conditions": "1 μg/mL LPS + 5 μM 4μ8C, 6 hours", "procedure": "as §1, §2\nTissue culture conditions and Reagents. HEK293 mTLR4/MD2/CD14 (Invivogen, 293-mtlr4md2cd14), primary lung fibroblasts, and BMDM were isolated and maintained as described (Zhang et al., 2008; Seluanov et al., 2010). […]"}, "[4]": {"conditions": "cited from earlier work"}, "[5]": {"conditions": "pre-clinical tests; cited from earlier work"}, "sigma-1 receptor": {"target": "sigma-1 receptor (Homo sapiens, UniProt Q99720)", "sequence (Q99720 whole entry)": "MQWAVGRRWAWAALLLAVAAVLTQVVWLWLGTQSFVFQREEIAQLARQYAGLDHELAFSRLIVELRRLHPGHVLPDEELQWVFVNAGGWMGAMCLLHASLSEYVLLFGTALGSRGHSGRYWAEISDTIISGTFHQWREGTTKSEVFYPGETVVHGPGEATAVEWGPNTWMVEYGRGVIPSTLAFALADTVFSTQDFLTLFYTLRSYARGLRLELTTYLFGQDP", "conditions": "cited from earlier work"}, "muscarinic receptor": {"system": "muscarinic receptor", "conditions": "cited from earlier work"}, "mice": {"system": "mice", "conditions": "mice treated with scopolamine, synthetic Aβ oligomer injection, or dizocilpine; cited from earlier work"}, "tau hyperphosphorylation": {"system": "tau hyperphosphorylation", "conditions": "cited from earlier work"}, "[6]": {"system": "transgenic (3×Tg-AD) mice", "conditions": "cited from earlier work"}}, "note": "“Also recorded” adds a separate entry of the source."}
{"compound": "Cc1cc(=O)oc2c(C=O)c(O)ccc12", "note": "[4μ8C, 7-Hydroxy-4-methyl-2-oxo-2H-1-benzopyran-8-carboxaldehyde]", "values": [{"measurement": "Difference in LPS-induced IL-6 secretion between WT and S1R KO BMDM", "setting": "BMDM [1]", "result": "rescued IL-6 secretion in S1R KO cells to the levels observed in control BMDM"}, {"measurement": "LPS induced XBP1 splicing", "setting": "[2]", "result": "completely abolished"}, {"measurement": "IRE1 transcript levels", "setting": "IRE1 transcript", "result": "restores IRE1 transcript levels to those observed in WT BMDM"}, {"measurement": "Potentiated cytokine expression in S1R KO BMDM relative to WT (qPCR)", "setting": "BMDM [3]", "result": "inhibits potentiation of cytokine expression in S1R KO BMDM; also recorded: reversed IL-6 expression in KO cells to the amount observed in WT BMDM"}, {"measurement": "IL-1β expression (qPCR)", "setting": "BMDM [3]; WT and S1R KO BMDM", "result": "decreases"}, {"measurement": "IL-6 expression (qPCR)", "setting": "BMDM [3]; WT and S1R KO BMDM", "result": "decreases"}, {"measurement": "IL-6 / cytokine secretion by lung fibroblasts upon LPS stimulation", "setting": "primary lung fibroblasts", "result": "marked decrease of cytokine secretion"}, {"measurement": "Half-life in vivo", "setting": "[4]", "result": "short half-life"}]}
{"compound": "CN(C)CC1COC(c2ccccc2)(c2ccccc2)C1.Cl", "note": "(centres unmarked) [ANAVEX® 1-41, tetrahydro-N,N-dimethyl-5,5-di phenyl-3-furanmethanamine hydrochloride]", "values": [{"measurement": "Neuroprotective benefits", "setting": "[5]", "result": "significant neuroprotective benefits"}]}
{"compound": "CN(C)CC1CCOC1(c1ccccc1)c1ccccc1.Cl", "note": "(centres unmarked) [ANAVEX® 2-73, tetrahydro-N,N-dimethyl-2,2-diphenyl-3-furanmethanamine hydrochloride]", "values": [{"measurement": "Affinity for / binding to sigma-1 receptor (S1R)", "setting": "sigma-1 receptor", "result": "high nanomolar range"}, {"measurement": "Binding to the muscarinic receptor", "setting": "muscarinic receptor", "result": "low micromolar range"}, {"measurement": "Memory and neuroprotection effects", "setting": "mice", "result": "memory-preserving and neuroprotective effects"}, {"measurement": "Tau hyperphosphorylation", "setting": "tau hyperphosphorylation", "result": "may block tau hyperphosphorylation"}]}
{"compound": "CC1SC2(CCN(C)CC2)CN1C(=O)CCc1c[nH]c2ccccc12", "note": "(centres unmarked) [ANAVEX® 3-71, 1-(2,8-dimethyl-1-thia-3,8-diazaspiro(4.5)dec-3-yl)-3-(1H-indol-3-yl)propan-1-one]", "values": [{"measurement": "Effect on major Alzheimer's hallmarks (cognitive deficits, amyloid and tau pathologies)", "setting": "[6]", "result": "highly effective in very small doses"}]}
